Where two headings read alike, the source gives them in different places.
Tests used:
HIV-1 = HIV-1 single-round infectious luciferase reporter virus (pseudotype) assay in HeLa CD4 CCR5 cells; assay type: cell-based
Procedure, shortened: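 Reporter pseudovirus produced in 293 cells infected HeLa cells expressing CD4/CCR5 at MOI ~0.01, with compound present at <10 μM final. Infection was quantified as luciferase luminescence after 72 h.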

HeLa cells = assay: Cytotoxicity assay in HeLa cells (MTT dye reduction, CC50); conditions: cytotoxicity; Yes = CC50 above 100 uM, No = not
Procedure, shortened: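 HeLa cells expressing CD4 and CCR5, grown in DMEM with 10% FBS, were used for cytotoxicity testing by MTT dye reduction; the text gives no further cytotoxicity conditions. The parallel antiviral assay exposed the same cells to compound at final <10 μM for 72 h.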

[1] = Metabolic stability in pooled human liver microsomes (HLM); conditions: pooled human liver microsomes, 3 μM drug; Low/Intermediate/High
Procedure, shortened: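 Pooled human liver microsomes (0.9 mg/ml final) in 0.1 M potassium phosphate pH 7.4 with 0.033 mM MgCl2 and an NADPH-regenerating system. Compound pre-incubated 2 min, reaction started with cofactors, run 10 min at 37° C, quenched in acetonitrile and analysed by LC/MS.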

[2] = Rat IV and PO pharmacokinetic studies; conditions: male, Sprague-Dawley, in vivo; for clearance: iv, 1 mg/kg, CL, iv dosing at 1 mg/kg; for AUC(0-t): po, 5 mg/kg, AUC 24 h, oral dosing at 5 mg/kg
Procedure: Rat Pharmacokinetic Studies: For the IV and PO pharmacokinetic studies of compounds in rats, the compound was dissolved in PEG-400/ethanol (90/10) as a solution. Rat. Male Sprague-Dawley rats (300-350 g, Hilltop Lab Animals, Inc., Scottdale, Pa.) with cannulas implanted in the jugular vein were used. The rats were fasted overnight in the PO pharmacokinetic studies. Blood samples of 0.3 ml were collected from the jugular vein in EDTA-containing microtainer tubes (Becton Dickinson, Franklin Lakes, N. J.), and centrifuged to separate plasma. In the IV study, the test compound was delivered at 1 mg/kg as a bolus over 0.5 min (n=3). […] Quantitation of Compounds in Plasma. […] The resulting supernates were separated from the precipitated proteins by centrifugation for 10 minutes and transferred to autosampler vials. Samples were either prepared manually, or with the use of the Tomtec automated liquid handler. An aliquot of 5 μL was injected for analysis. The HPLC system consisted of two Shimadzu LC10AD pumps (Columbia, Md.), a Shimadzu SIL-HTC autosampler (Columbia, Md.), and a Hewlett Packard Series 1100 column compartment (Palo Alto, Calif.). The column was a YMC Pro C18 (2.0×50 mm, 3 μm particles, Waters Co., Milford, Mass.), maintained at 60° C. and a flow rate of 0.3 ml/min. The mobile phase consisted of 10 mM ammonium formate and 0.1% formic acid in water (A) and 100% 10 mM ammonium formate and 0.1% formic acid in methanol (B). […] The mobile phase was then returned to initial conditions and the column re-equilibrated for 1 minute. Total analysis time was 4 minutes. The HPLC was interfaced to a Micromass Quattro LC. Ultra high purity nitrogen was used as the nebulizing and desolvation gas at flow rates of 100 L/hr for nebulization and 1100 L/hr for desolvation. The desolvation temperature was 300° C. and the source temperature was 150° C. Data acquisition utilized selected reaction monitoring (SRM). Ions representing the (M+H)^+ species for the compound and the internal standard were selected in MS 1 and collisionally dissociated with argon at a pressure of 2×10^−3 torr to form specific product ions which were subsequently monitored by MS2.
For accuracy, the determined measure of viral inhibition is an EC50; but the minimum plasma concentrations which should be maintained in a patient is generally believed to be at least four or five fold higher. […] Lower is better. • 4) Estimating potential exposure in man by measuring parameters such as AUC and rate of clearance by oral and iv dosing in rats. High exposure and low clearance was desired.
The rat model is an initial model used to assess potential for exposure in man.

[3] = Human immunodeficiency virus 1, HeLa-CD4/CCR5, 72 h, read-out: EC50 Group from Table 1, HeLa CD4 CCR5 cells, luciferase reporter virus, harvested 72 h after infection
[4] = Human immunodeficiency virus 1, HeLa-CD4/CCR5, read-out: EC50 category, HIV-1 single-round reporter virus assay, category 1/2/3 per Table A1 key
[5] = Human immunodeficiency virus 1, HeLa-CD4/CCR5, read-out: EC50 Group from TABLE 1, HeLa CD4 CCR5 cells, single-round infectious luciferase reporter virus
[6] = Human immunodeficiency virus 1, HeLa-CD4/CCR5, read-out: EC50 Group from Table 1, Table 2-1, HeLa CD4 CCR5 cells, single-round luciferase reporter virus

Row | SMILES | EC50 (HIV-1; [3]) | EC50 (HIV-1; [4]) | CC50 > 100 uM (HeLa cells) | HLM predicted human clearance class [1] | clearance [2] | AUC(0-t) [2] | EC50 (HIV-1; [5]) | EC50 (HIV-1; [6])
1 | C[C@@H]1CN(C(=O)C(=O)c2c[nH]c3c(-n4nccn4)ccnc23)CCN1C(=O)c1ccccc1 [Example 355] | < 1000 nM | 0.2 to 1000 nM | Yes | Low (0-0.100) | 13.9 ± 5.3 mL/min/kg | 3.3 ± 0.77 µg·h/mL | – | –
2 | C[C@@H]1CN(C(=O)C(=O)c2c[nH]c3c(-c4ncco4)ccnc23)CCN1C(=O)c1ccccc1 [Example 353] | < 1000 nM | 0.2 to 1000 nM | Yes | Low (0-0.100) | 5.6 ± 1.1 mL/min/kg | 1360 ± 307 µg·h/mL | – | –
3 | Nc1ccn(-c2ncc(F)c3c(C(=O)C(=O)N4CCN(C(=O)c5ccccc5)CC4)c[nH]c23)n1 [Example 309] | – | < 0.2 nM | Yes | Low (0-0.100) | 34.3 ± 2.6 mL/min/kg | 0.09 ± 0.05 µg·h/mL | < 1000 nM | –
4 | COc1cnc(-c2cnc(N)cn2)c2[nH]cc(C(=O)C(=O)N3CCN(C(=O)c4ccccc4)[C@H](C)C3)c12 [Example 266] | – | < 0.2 nM | Yes | Low (0-0.100) | 37.4 ± 3.2 mL/min/kg | 0.16 ± 0.04 µg·h/mL | – | < 1000 nM
5 | Cc1ccn(-c2ncc(F)c3c(C(=O)C(=O)N4CCN(C(=O)c5ccccc5)CC4)c[nH]c23)n1 [Example 310] | – | < 0.2 nM | Yes | Low (0-0.100) | 16.5 ± 3.3 mL/min/kg | 2.1 ± 0.4 µg·h/mL | < 1000 nM | –
6 | COc1cnc(-n2cc(C)nn2)c2[nH]cc(C(=O)C(=O)N3CCN(C(=O)c4ccccc4)[C@H](C)C3)c12 [Example 326] | – | < 0.2 nM | Yes | Low (0-0.100) | 8.3 mL/min/kg | 9.8 ± 2.9 µg·h/mL | – | < 1000 nM
7 | COc1cnc(-n2ccc(C)n2)c2[nH]cc(C(=O)C(=O)N3CCN(C(=O)c4ccccc4)CC3)c12 [Example 190, 1-benzoyl-4-[(4-methoxy-7-(3-methyl-pyrazol-1-yl)-6-azaindol-3-yl)-oxoacetyl]piperazine] | – | < 0.2 nM | Yes | Low (0-0.100) | 3.7 ± 1 mL/min/kg | 7.4 ± 3.4 µg·h/mL | < 1000 nM | –
8 | COc1cnc(-n2cncn2)c2[nH]cc(C(=O)C(=O)N3CCN(C(=O)c4ccccc4)CC3)c12 [Example 187, 1-benzoyl-4-[(4-methoxy-7-(1,2,4-triazol-1-yl)-6-azaindol-3-yl)-oxoacetyl]piperazine] | – | < 0.2 nM | Yes | Low (0-0.100) | 2.4 ± 0.5 mL/min/kg | 22.4 ± 7.2 µg·h/mL | < 1000 nM | –
